In patent US9783574B2, “Cardiovascular therapeutics” (Otago Innovation Limited, priority 2011, dated 2017):
No end group written: not given here.

Tests used:
isolated rat heart = test: Modified BNPsp peptides, preconditioning in isolated rat heart (Example 6: 40 min global ischemia, 90 min reperfusion); details: preconditioned 30 minutes with 0.3 nmol/L; n=3
Experimental: This set of experiments assessed modified BNPsp(17-26) peptides. This experiment repeated the preconditioning work outlined in the isolated rat heart model Examples, but with C-terminal ablated and an N-terminal extended version of BNPsp(17-26). Hearts were preconditioned with 30 minute doses of 0.3 nmol/L BNPsp(16-26) and BNPsp(17-24) prior to 40 minutes of global ischemia and 90 minutes reperfusion. Cardiac contractile and perfusion pressure indices were recorded.

normal, healthy sheep = details: in vivo
Text: Such a response is indicative of a well tolerated agent. […] This is a favourable profile in normal health.

in vivo = details: sheep, iv
Experimental: In this set of experiments, four normal healthy sheep were infused with human BNPsp(17-26) at 100-1000 ug/kg·min−1 to document any effects upon normal blood pressure, heart rate or renal function. This experiment was carried out to determine achieved circulating levels of BNPsp(17-26) in response to the dose given and to document any significant effects upon haemodynamic, renal or hormonal indices.

Sequence	haemodynamic protective profile (developed pressure) (isolated rat heart)	haemodynamics, renal function or circulating biomarkers (normal, healthy sheep)	half-life (in vivo) [min]
LHLAFLGG (listed as Homo sapiens) [BNPsp(17-24), modified peptide with two C-terminal amino acids removed]	protective effect		
LHLAFLGGRS [BNPsp(17-26), LHLAFLGGRS]		no detectable changes	< 1
